Data on 18 compounds can be found in US9815854B2, “3-(3H-imidazo[4,5-B]pyridin-2-yl)-1H-pyrazolo[3,4-C]pyridine and therapeutic uses thereof” (Samumed, LLC, priority 2014, dated 2017).

Experiment [1] has as its system Wnt activity (Sp5-Luc reporter, TCF/LEF binding sites) in SW480 colon carcinoma cells. Briefly: Sp5-Luc Wnt reporter gene screening assay in SW480 colon carcinoma cells. The format is cell-based, human. The settings on record: Homo sapiens. The source says:
The screening assay for Wnt activity is described as follows. Reporter cell lines can be generated by stably transducing cancer cell lines (e.g., colon cancer) or primary cells (e.g., IEC-6 intestinal cells) with a lentiviral construct that includes a Wnt-responsive promoter driving expression of the firefly luciferase gene.
SW480 colon carcinoma cells were transduced with a lentiviral vector expressing luciferase with a human Sp5 promoter consisting of a sequence of eight TCF/LEF binding sites. SW480 cells stably expressing the Sp5-Luc reporter gene and a hygromycin resistance gene were selected by treatment with 150 μg/ml of hygroinycin for 7 days. These stably transduced SW480 cells were expanded in cell culture and used for all further screening activities. For Sp5-Luc reporter gene assays, the cells were plated at 10,000 cells/well in 96-well plates with growth medium containing 10% fetal calf serum and incubated overnight at 37° C. and 5% CO2. Each compound was dissolved in DMSO as a 10 mM stock in standard j-vials and used to prepare compound source plates in dose-response format with 3-fold serial dilutions and a 10 mM top concentration. Compound transfer from serially diluted source plates to assay plates containing the cells was accomplished using a pintool (Multimek 96, Beckman equipped with V&P Scientific FP1S50H pins) based liquid handling protocol. This protocol used a slotted pin to transfer 50 nl of compound from a source plate well to an assay plate well containing 50 μl of cells in growth medium. […] Control wells received 50 nl of DMSO treatment for nommlization and calculating IC50 values. The treated cells were incubated at 37° C. and 5% CO2 for an additional forty-two hours. Following incubation, the growth medium was removed and 50 μl of BrightGlo luminescence reagent (Promega) was added to each well of the 96-well assay plates. The plates were placed on an orbital shaker for 5 min and then luminescence was quantified on the Victor3 (Perkin Elmer) plate reader. Readings were normalized to DMSO only treated cells, and normalized activities were utilized for IC50 calculations using the dose-response log (inhibitor) vs. response—variable slope (four parameters) nonlinear regression feature available in GraphPad Prism 5.0 or 6.0.

Experiment [2] deals with primary human fibroblasts derived from IPF patients (LL29 cells). Briefly: Inhibition of the fibrotic process in TGF-β1-treated primary human fibroblasts from IPF patients (αSMA staining). In kind it is cell-based. Conditions: Fibroblast, 96 h, TGF-β1 20 ng/mL, 4 days, read-out: Inhibition of fibrosis EC50. The text has this: The above synthesized compounds were screened using primary human fibroblasts (derived from IPF patients) treated with TGF-β1 to determine their ability to inhibit the fibrotic process.
Human Fibroblast Celt Culture: Primary human fibroblasts derived from IPF patients (LL29 cells) [^1Xiaoqiu Liu, et.al., “Fibrotic Luna Fibroblasts Show Blunted Inhibition by cAMP Due to Deficient cAMP Response Element-Binding Protein Phosphorylation”, Journal of Pharmacology and Experimental Therapeutics (2005), 315(2), 678-687; ^2Watts, K. L., et.al., “RhoA signaling modulates cyclin D1 expression in human lung fibroblasts; implications for idiopathic pulmonary fibrosis”, Respiratory Research (2006), 7(1), 88] were obtained from American Type Culture Collection (ATCC) and expanded in F12 medium supplemented with 15% Fetal Bovine Serum and Penicillin/Streptomycin.
Compound Screening: Each compound was dissolved in DMSO as a 10 mM stock and used to prepare compound source plates. Serial dilution (1:2, 11-point dose-response curves from 10 μM to […]) and compound transfer was performed using the ECHO 550 (Lahcyte, Sunnyvale, Calif.) into 384-well clear bottom assay plates (Greiner Bio-One) with appropriate DMSO backfill fhr a final DMSO concentration of 0.1%. LL29 cells were plated at 1,500 cells/well in 80 μl/well F12 medium supplemented with 1% Fetal Bovine Serum. One hour after addition of the cells. TGF-β1 (Peprotech; 20 ng/mL) was added to the plates to induce fibrosis (ref. 1 and 2 above), Wells treated with TGF-β1 and containing DMSO were used as controls. Cells were incubated at 37° C. and 5% CO2 for 4 days. Following incubation for 4 days, SYTOX green nucleic acid stain (Life Technologies [Thermo Fisher Scientific]) was added to the wells at a final concentration of 1 uM and incubated at room temperature for 30 min. Cells were then fixed using 4% formaldehyde (Electron Microscopy Sciences), washed 3 times with PBS followed by blocking and penneabilization using 3% Bovine Serum Albumin (BSA; Sigma) and 0.3% Triton X-100 (Sigma) in PBS. Cells were then stained with antibody specific to α-smooth muscle actin (αSMA; Abeam) (ref 1 and 2 above) in 3% Bovine Serum Albumin (BSA; Sigma) and 0.3% Triton X-100 (Sigma) in PBS, and incubated overnight at 4° C. Cells were then washed 3 times with PBS, followed by incubation with Alexa Flor-647 conjugated secondary antibody (Life Technologies [Thermo Fisher Scientific]) and DAPI at room temperature for 1 hour, Cells were then washed 3 times with PBS and plates were sealed for imaging. αSMA staining was imaged by excitation at 630 nm and emission at 665 nm and quantified using the Compartmental Analysis program on the CellInsight CX5 (Thermo Scientific). Dead or apoptotic cells were excluded from analysis based on positive SYTOX green staining. % of total cells positive for αSMA were counted in each well and normalized to the average of 11 wells treated with TGF-β1 on the same plate using Dotmatics' Studies Software. The normalized averages (fold change over untreated) of 3 replicate wells for each compound concentration were used to create dose-responses curves and EC50 values were calculated using non-linear regression curve fit in the Dotmatics' Studies Software. The EC50 values are reported.

Turning to `c1ccc(-c2ccnc3[nH]c(-c4n[nH]c5cnc(-c6cncc(CNCC7CCCC7)c6)cc45)nc23)nc1` [Compound 154, 1-Cyclopentyl-N-((5-(3-(7-(pyridin-2-yl)-3H-imidazo[4,5-b]pyridin-2-yl)-1H-pyrazolo[3,4-c]pyridin-5-yl)pyridin-3-yl)methyl)methanamine], the IC50 in experiment [1] is 464 nM. Also, the EC50 in experiment [2] was 596 nM.

As to `CCC(=O)Nc1cncc(-c2cc3c(-c4nc5c(N6CCCCC6)ccnc5[nH]4)n[nH]c3cn2)c1` [Compound 157], in experiment [1], the IC50 was more than 10000 nM. Also, the EC50 in experiment [2] is not below 9990 nM.

`CC(C)(C)C(=O)Nc1cncc(-c2cc3c(-c4nc5c(N6CCCCC6)ccnc5[nH]4)n[nH]c3cn2)c1` [Compound 164, N-(5-(3-(7-(Piperidin-1-yl)-3H-imidazo[4,5-b]pyridin-2-yl)-1H-pyrazolo[3,4-c]pyridin-5-yl)pyridin-3-yl)pivalamide] returned an IC50 in experiment [1] of 84.4 nM. Further, the EC50 in experiment [2] is not above 9 nM.

As to `CN(C)Cc1cncc(-c2cc3c(-c4nc5c(N6CCCCC6)ccnc5[nH]4)n[nH]c3cn2)c1` [Compound 169, N,N-Dimethyl-1-(5-(3-(7-(piperidin-1-yl)-3H-imidazo[4,5-b]pyridin-2-yl)-1H-pyrazolo[3,4-c]pyridin-5-yl)pyridin-3-yl)methanamine], in experiment [1], the IC50 is 253 nM. In addition, the EC50 in experiment [2] came out at 481 nM.

For the compound `CCCC(=O)Nc1cncc(-c2cc3c(-c4nc5c(N6CCCCC6)ccnc5[nH]4)n[nH]c3cn2)c1` [Compound 173, N-(5-(3-(7-(Piperidin-1-yl)-3H-imidazo[4,5-b]pyridin-2-yl)-1H-pyrazolo[3,4-c]pyridin-5-yl)pyridin-3-yl)butyramide], in experiment [1], the IC50 was 169 nM. The EC50 in experiment [2] came out at 18 nM.

`O=C(Nc1cncc(-c2cc3c(-c4nc5c(N6CCCCC6)ccnc5[nH]4)n[nH]c3cn2)c1)C1CC1` [Compound 175, N-(5-(3-(7-(Piperidin-1-yl)-3H-imidazo[4,5-b]pyridin-2-yl)-1H-pyrazolo[3,4-c]pyridin-5-yl)pyridin-3-yl)cyclopropanecarboxamide]: the IC50 in experiment [1] was determined as 155 nM. Further, the EC50 in experiment [2] stood at 3930 nM.

In experiment [1], `Cc1cn(-c2ccnc3[nH]c(-c4n[nH]c5cnc(-c6cncc(CN7CCCC7)c6)cc45)nc23)cn1` [Compound 196] had an IC50 of more than 10000 nM. For the same compound, in experiment [2], the EC50 was not below 9990 nM.

`CN1CCN(c2ccnc3[nH]c(-c4n[nH]c5cnc(-c6cncc(N)c6)cc45)nc23)CC1` [Compound 211, 5-(3-(7-(4-Methylpiperazin-1)-3H-imidazo[4,5-b]pyridin-2-yl)-1H-pyrazolo[3,4-c]pyridin-5-yl)pyridin-3-amine]: the IC50 in experiment [1] is 1040 nM. Moreover, in experiment [2], the EC50 is not below 9990 nM.

For the compound `CC(C)C(=O)Nc1cncc(-c2cc3c(-c4nc5c(N6CCN(C)CC6)ccnc5[nH]4)n[nH]c3cn2)c1` [Compound 217, N-(5-(3-(7-(4-Methylpiperazin-1-yl)-3H-imidazo[4,5-b]pyridin-2-yl)1H-pyrazolo[3,4-c]pyridin-5-yl)pyridin-3-yl)isobutyramide], the IC50 in experiment [1] was more than 10000 nM. In addition, in experiment [2], the EC50 is not below 9990 nM.

For the compound `CN1CCN(c2ccnc3[nH]c(-c4n[nH]c5cnc(-c6cncc(CN7CCCCC7)c6)cc45)nc23)CC1` [Compound 223, 3-(7-(4-Methylpiperazin-1-yl)-3H-imidazo[4,5-b]pyridin-2-yl)-5-(5-(piperidin-1-ylmethyl)pyridin-3-yl)-1H-pyrazolo[3,4-c]pyridine], the IC50 in experiment [1] came out at 5080 nM. The EC50 in experiment [2] is not above 9 nM.

In the case of `CN1CCN(c2ccnc3[nH]c(-c4n[nH]c5cnc(-c6cncc(NC(=O)C7CCCC7)c6)cc45)nc23)CC1` [Compound 229, N-(5-(3-(7-(4-Methylpiperazin-1-yl)-3H-imidazo[4,5-b]pyridin-2-yl)-1H-pyrazolo[3,4-c]pyridin-5-yl)pyridin-3-yl)cyclopentanecarboxamide], the IC50 in experiment [1] was more than 10000 nM. Moreover, in experiment [2], the EC50 is not above 9 nM.

Consider `CN1CCN(c2ccnc3[nH]c(-c4n[nH]c5cnc(-c6cncnc6)cc45)nc23)CC1` [Compound 234, 3-(7-(4-Methylpiperazin-1-yl)-3H-imidazo[4,5-b]pyridin-2-yl)-5-(pyrimidin-5-yl)-1H-pyrazolo[3,4-c]pyridine], for which the concentration for half-maximal inhibition (IC50) in experiment [1] was more than 10000 nM. Moreover, the EC50 in experiment [2] was not below 9990 nM.

`O=C(Cc1ccccc1)Nc1cncc(-c2cc3c(-c4nc5cccnc5[nH]4)n[nH]c3cn2)c1` [Compound 244, N-(5-(3-(3H-Imidazo[4,5-b]pyridin-2-yl)-1H-pyrazolo[3,4-c]pyridin-5-yl)pyridin-3-yl)-2-phenylacetamide] showed an IC50 in experiment [1] of more than 10000 nM. The EC50 in experiment [2] amounted to 992 nM.

In experiment [1], `CC(C)(C)CC(=O)Nc1cncc(-c2cc3c(-c4nc5cccnc5[nH]4)n[nH]c3cn2)c1` [Compound 250, N-(5-(3-(3H-Imidazo[4,5-b]pyridin-2-yl)-1H-pyrazolo[3,4-c]pyridin-5-yl)pyridin-3-yl)-3,3-dimethylbutanamide] yielded an IC50 of more than 10000 nM. Further, in experiment [2], the EC50 is not below 9990 nM.

The compound `O=C(Nc1cncc(-c2cc3c(-c4nc5cccnc5[nH]4)n[nH]c3cn2)c1)C1CCCCC1` [Compound 256, N-(5-(3-(3H-Imidazo[4,5-b]pyridin-2-yl)-1H-pyrazolo[3,4-c]pyridin-5-yl)pyridin-3-yl)cyclohexanecarboxamide] displayed an IC50 in experiment [1] of 796 nM. Further, in experiment [2], the EC50 was not below 9990 nM.

`Cc1ccncc1-c1cc2c(-c3nc4c(-c5ccsc5)ccnc4[nH]3)n[nH]c2cn1` [Compound 265, 5-(4-Methylpyridin-3-yl)-3-(7-(thiophen-3-yl)-3H-imidazo[4,5-b]pyridin-2-yl)-1H-pyrazolo[3,4-c]pyridine]: the IC50 in experiment [1] is 26.1 nM. Further, the EC50 in experiment [2] came out at 34 nM.

Take `O=C(Nc1cncc(-c2cc3c(-c4nc5c(-c6ccsc6)ccnc5[nH]4)n[nH]c3cn2)c1)c1ccccc1` [Compound 271, N-(5-(3-(7-(Thiophen-3-yl)-3H-imidazo[4,5-b]pyridin-2-yl)-1H-pyrazolo[3,4-c]pyridin-5-yl)pyridin-3-yl)benzarnide]: the half-maximal inhibitory concentration (IC50) in experiment [1] stood at 16.6 nM. In addition, in experiment [2], the EC50 amounted to 51 nM.

In the case of `CCCC(=O)Nc1cncc(-c2cc3c(-c4nc5c(-c6ccsc6)ccnc5[nH]4)n[nH]c3cn2)c1` [Compound 277, N-(5-(3-(7-(Thiophen-3-yl)-3H-imidazo[4,5-b]pyridin-2-yl) 1H-pyrazolo[3,4-c]pyridin-5-yl)pyridin-3-yl)butyramide], the IC50 in experiment [1] worked out at 24.9 nM. The EC50 in experiment [2] is 158 nM.
